Reference: patent US11447466B2, “Substituted indole compounds useful as inhibitors of TLR7/8/9” (BRISTOL-MYERS SQUIBB COMPANY, priority 2017, dated 2022)

How the values were obtained:
Type in all cases: cell-based
human TLR9 = target: T1, human TLR9 (Homo sapiens, UniProt Q9NR96); test: TLR9 inhibition reporter assay (HEK-Blue SEAP reporter, ODN2006 stimulation); conditions: HEK-Blue cells overexpressing human TLR9, SEAP reporter, ODN2006 5 nM, 22 hour incubation
T1 construct: host or cells: HEK-Blue cells
T1 sequence (Q9NR96 26-1032): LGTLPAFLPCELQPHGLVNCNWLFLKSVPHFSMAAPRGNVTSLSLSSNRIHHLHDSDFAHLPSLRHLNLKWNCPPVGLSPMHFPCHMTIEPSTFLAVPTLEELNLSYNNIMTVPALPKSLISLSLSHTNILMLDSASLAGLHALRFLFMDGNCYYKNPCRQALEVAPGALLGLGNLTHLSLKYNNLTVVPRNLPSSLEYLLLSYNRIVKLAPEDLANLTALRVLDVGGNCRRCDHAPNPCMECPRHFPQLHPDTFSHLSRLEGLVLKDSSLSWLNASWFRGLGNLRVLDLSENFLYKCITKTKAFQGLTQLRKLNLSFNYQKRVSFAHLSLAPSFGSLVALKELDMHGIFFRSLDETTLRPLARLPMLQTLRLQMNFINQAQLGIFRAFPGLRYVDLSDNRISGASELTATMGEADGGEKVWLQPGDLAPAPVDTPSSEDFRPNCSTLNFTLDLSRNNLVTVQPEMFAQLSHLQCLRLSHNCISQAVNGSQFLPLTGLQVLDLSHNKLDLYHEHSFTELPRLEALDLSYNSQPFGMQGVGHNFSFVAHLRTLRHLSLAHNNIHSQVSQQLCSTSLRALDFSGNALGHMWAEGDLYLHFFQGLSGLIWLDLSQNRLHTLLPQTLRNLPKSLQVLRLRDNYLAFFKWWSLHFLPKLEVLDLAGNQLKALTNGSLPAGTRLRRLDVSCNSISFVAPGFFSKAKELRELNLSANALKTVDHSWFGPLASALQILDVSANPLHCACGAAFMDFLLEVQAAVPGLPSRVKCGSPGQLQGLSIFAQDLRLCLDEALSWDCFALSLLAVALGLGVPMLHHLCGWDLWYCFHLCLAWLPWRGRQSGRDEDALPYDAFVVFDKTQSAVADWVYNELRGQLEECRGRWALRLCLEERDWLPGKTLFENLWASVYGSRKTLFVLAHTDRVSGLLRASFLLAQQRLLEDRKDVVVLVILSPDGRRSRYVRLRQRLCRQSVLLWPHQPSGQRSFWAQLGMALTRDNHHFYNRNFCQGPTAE
Method in brief: (§1)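 Screening used HEK-Blue cells overexpressing one human TLR (7, 8 or 9) and an IFN-β minimal promoter–NF-κB/AP-1 SEAP construct. Stimulation lasted 22 h at 37 °C with receptor-specific agonist: gardiquimod, R848 or ODN2006 at 7.5 μM, 15.9 μM and 5 nM.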

human TLR8 = target: T2, human TLR8 (Homo sapiens, UniProt Q9NR97); test: TLR8 inhibition reporter assay (HEK-Blue SEAP reporter, R848 stimulation); conditions: HEK-Blue cells overexpressing human TLR8, SEAP reporter, R848 15.9 μM, 22 hour incubation
T2 construct: host or cells: HEK-Blue cells
T2 sequence (Q9NR97 27-1041): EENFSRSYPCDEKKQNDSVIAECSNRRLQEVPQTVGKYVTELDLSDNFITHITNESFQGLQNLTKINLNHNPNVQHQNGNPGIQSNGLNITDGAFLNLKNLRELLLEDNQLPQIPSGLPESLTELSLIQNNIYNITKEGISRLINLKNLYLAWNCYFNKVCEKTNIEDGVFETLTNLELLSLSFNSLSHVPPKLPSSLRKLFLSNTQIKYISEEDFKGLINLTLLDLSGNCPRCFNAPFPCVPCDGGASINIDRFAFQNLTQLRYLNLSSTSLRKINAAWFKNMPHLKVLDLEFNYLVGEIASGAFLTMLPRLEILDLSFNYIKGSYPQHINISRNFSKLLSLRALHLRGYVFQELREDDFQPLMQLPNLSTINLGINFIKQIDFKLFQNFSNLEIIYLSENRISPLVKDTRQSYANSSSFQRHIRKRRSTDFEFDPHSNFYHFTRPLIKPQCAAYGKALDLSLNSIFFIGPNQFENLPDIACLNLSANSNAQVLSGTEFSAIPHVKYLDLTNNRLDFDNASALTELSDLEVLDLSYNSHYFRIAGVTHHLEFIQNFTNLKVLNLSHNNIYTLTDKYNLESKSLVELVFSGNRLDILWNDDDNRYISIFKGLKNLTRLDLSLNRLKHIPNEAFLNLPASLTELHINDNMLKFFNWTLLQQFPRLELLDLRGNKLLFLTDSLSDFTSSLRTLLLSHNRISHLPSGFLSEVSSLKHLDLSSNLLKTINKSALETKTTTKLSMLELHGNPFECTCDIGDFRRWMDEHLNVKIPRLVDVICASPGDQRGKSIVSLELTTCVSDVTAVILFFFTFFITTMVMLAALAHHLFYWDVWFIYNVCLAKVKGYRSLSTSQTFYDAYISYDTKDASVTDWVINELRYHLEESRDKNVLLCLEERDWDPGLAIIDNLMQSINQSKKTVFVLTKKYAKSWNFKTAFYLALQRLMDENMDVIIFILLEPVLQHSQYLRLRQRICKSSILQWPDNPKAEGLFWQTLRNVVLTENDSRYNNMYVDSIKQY
Method in brief: as §1

human TLR7 = target: T3, human TLR7 (Homo sapiens, UniProt Q9NYK1); test: TLR7 inhibition reporter assay (HEK-Blue SEAP reporter, gardiquimod stimulation); conditions: HEK-Blue cells overexpressing human TLR7, SEAP reporter, gardiquimod 7.5 μM, 22 hour incubation
T3 construct: host or cells: HEK-Blue cells
T3 sequence (Q9NYK1 27-1049): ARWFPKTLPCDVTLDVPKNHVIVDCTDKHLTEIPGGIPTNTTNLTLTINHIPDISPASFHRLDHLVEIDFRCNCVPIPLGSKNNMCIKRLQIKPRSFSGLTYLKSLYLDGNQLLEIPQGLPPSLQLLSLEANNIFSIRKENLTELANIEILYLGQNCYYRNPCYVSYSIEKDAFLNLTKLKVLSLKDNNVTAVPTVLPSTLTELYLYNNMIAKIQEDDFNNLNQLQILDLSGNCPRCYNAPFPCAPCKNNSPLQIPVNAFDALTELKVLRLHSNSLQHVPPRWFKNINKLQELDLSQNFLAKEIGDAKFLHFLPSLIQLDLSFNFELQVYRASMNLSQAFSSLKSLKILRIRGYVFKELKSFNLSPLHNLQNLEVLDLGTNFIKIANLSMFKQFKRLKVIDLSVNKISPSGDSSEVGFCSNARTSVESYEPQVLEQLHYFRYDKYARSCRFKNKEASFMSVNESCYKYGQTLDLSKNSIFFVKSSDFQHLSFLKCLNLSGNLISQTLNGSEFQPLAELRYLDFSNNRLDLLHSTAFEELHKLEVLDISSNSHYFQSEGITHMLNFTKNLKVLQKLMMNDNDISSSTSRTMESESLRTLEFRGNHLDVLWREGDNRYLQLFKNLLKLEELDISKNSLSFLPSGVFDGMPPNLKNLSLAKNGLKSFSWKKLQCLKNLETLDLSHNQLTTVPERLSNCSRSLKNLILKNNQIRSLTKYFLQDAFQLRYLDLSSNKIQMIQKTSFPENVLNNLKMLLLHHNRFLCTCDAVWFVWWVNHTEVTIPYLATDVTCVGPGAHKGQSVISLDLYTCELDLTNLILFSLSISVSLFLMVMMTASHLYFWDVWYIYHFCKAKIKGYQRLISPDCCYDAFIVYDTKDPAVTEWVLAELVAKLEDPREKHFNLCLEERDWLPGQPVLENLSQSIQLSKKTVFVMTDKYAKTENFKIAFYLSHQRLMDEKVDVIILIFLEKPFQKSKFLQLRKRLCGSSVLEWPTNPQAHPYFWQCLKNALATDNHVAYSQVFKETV
Method in brief: as §1

| Compound | IC50 (human TLR9) [µM] | IC50 (human TLR8) [µM] | IC50 (human TLR7) [µM] |
| --- | --- | --- | --- |
| Cc1cc(-c2[nH]c3ccc(C4CCN(C(=O)[C@@H]5C[C@@H](O)CN5C)CC4)cc3c2C(C)C)cn(C)c1=O [Example 289, 5-(5-(1-((2S,4R)-4-hydroxy-1-methylpyrrolidine-2-carbonyl)piperidin-4-yl)-3-isopropyl-1H-indol-2-yl)-1,3-dimethylpyridin-2(1H)-one] | 5.28 | 0.0123 | 0.0059 |
| Cc1nc(-c2[nH]c3ccc(C4CCN(C5CCOC5)CC4)cc3c2C(C)C)cn(C)c1=O (stereo not drawn) [Example 190, 5-(3-isopropyl-5-(1-(tetrahydrofuran-3-yl)piperidin-4-yl)-1H-indol-2-yl)-1,3-dimethylpyrazin-2(1H)-one] | 2.26 | 0.0538 | 0.0256 |
| Cc1cc(-c2[nH]c3ccc(C4CCN(CCC#N)CC4)cc3c2C(C)C)cn(C)c1=O [Example 76, 3-(4-(2-(1,5-dimethyl-6-oxo-1,6-dihydropyridin-3-yl)-3-isopropyl-1H-indol-5-yl)piperidin-1-yl)propanenitrile] | 19.9 | 0.0047 | 0.0044 |
| CC(C)c1c(-c2cc(Cl)c(=O)n(C)c2)[nH]c2ccc(C3CCNCC3)cc12 [Example 22, 3-chloro-5-(3-isopropyl-5-(piperidin-4-yl)-1H-indol-2-yl)-1-methylpyridin-2(1H)-one] | 2.55 | 0.0107 | 0.0011 |
| Cc1cc(-c2[nH]c3ccc(C4CCN(Cc5cc(OC(F)F)ccc5F)CC4)cc3c2C(C)C)cn(C)c1=O [Example 78, 5-(5-(1-(5-(difluoromethoxy)-2-fluorobenzyl)piperidin-4-yl)-3-isopropyl-1H-indol-2-yl)-1,3-dimethylpyridin-2(1H)-one] | 34.8 | 0.064 | 0.0676 |
| COCCn1cc(-c2[nH]c3ccc(C4CCNCC4)cc3c2C(C)C)cc(C)c1=O [Example 39, 5-(3-isopropyl-5-(piperidin-4-yl)-1H-indol-2-yl)-1-(2-methoxyethyl)-3-methylpyridin-2(1H)-one] | 3.18 | 0.0079 | 0.0079 |
| Cc1c(-c2[nH]c3ccc(C4CCN(C(C)C)CC4)cc3c2C(C)C)cn(C)c(=O)c1-c1cccnc1 [Example 237, 5-(3-isopropyl-5-(1-isopropylpiperidin-4-yl)-1H-indol-2-yl)-1,4-dimethyl-[3,3′-bipyridin]-2(1H)-one] | 2.1 | 0.0198 | 0.181 |
| Cc1nc(-c2[nH]c3ccc(C4CCN(C5CCOCC5)CC4)cc3c2C(C)C)cn(C)c1=O [Example 185, 5-(3-isopropyl-5-(1-(tetrahydro-2H-pyran-4-yl)piperidin-4-yl)-1H-indol-2-yl)-1,3-dimethylpyrazin-2(1H)-one] | 4.32 | 0.019 | 0.0613 |
| Cc1c(-c2[nH]c3ccc(C4CCN(C5CCOCC5)CC4)cc3c2C(C)C)cn(C)c(=O)c1C#N [Example 222, 5-(3-isopropyl-5-(1-(tetrahydro-2H-pyran-4-yl)piperidin-4-yl)-1H-indol-2-yl)-1,4-dimethyl-2-oxo-1,2-dihydropyridine-3-carbonitrile] | 3.07 | 0.0009 | 0.0156 |
| CC(C)c1c(-c2cc(-c3cncnc3)c(=O)n(C)c2)[nH]c2ccc(C3CCN(C(C)C)CC3)cc12 [Example 244, 5-(3-isopropyl-5-(1-isopropylpiperidin-4-yl)-1H-indol-2-yl)-1-methyl-3-(pyrimidin-5-yl)pyridin-2(1H)-one] | 0.954 | 0.0018 | 0.006 |
| Cc1c(-c2[nH]c3ccc(C4CCN(C(C)C)CC4)cc3c2C(C)C)cn(C)c(=O)c1Cl [Example 238, 3-chloro-5-(3-isopropyl-5-(1-isopropylpiperidin-4-yl)-1H-indol-2-yl)-1,4-dimethylpyridin-2(1H)-one] | 8.33 | 0.0118 | 0.0072 |
| Cc1cc(-c2[nH]c3ccc(C4CCN(C(=O)CC(C)(C)O)CC4)cc3c2C(C)C)cn(C)c1=O [Example 303, 5-(5-(1-(3-hydroxy-3-methylbutanoyl)piperidin-4-yl)-3-isopropyl-1H-indol-2-yl)-1,3-dimethylpyridin-2(1H)-one] | ≥ 50 | 0.0499 | 0.0096 |
| CCn1cc(-c2[nH]c3ccc(C4CCNCC4)cc3c2C(C)C)cc(C)c1=O [Example 15, 1-ethyl-5-(3-isopropyl-5-(piperidin-4-yl)-1H-indol-2-yl)-3-methylpyridin-2(1H)-one] | 0.179 | 0.0033 | 0.0019 |
| CC(C)c1c(-c2cc(/C=C/C3CC3)c(=O)n(C)c2)[nH]c2ccc(C3CCNCC3)cc12 [Example 52, (E)-3-(2-cyclopropylvinyl)-5-(3-isopropyl-5-(piperidin-4-yl)-1H-indol-2-yl)-1-methylpyridin-2(1H)-one] | 1.52 | 0.142 | 0.185 |
